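How tested: cells in 96-well plates exposed to compound for 48 hours at five concentrations. TGI denotes the concentration required for complete inhibition of growth.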 Where a SMILES comes first, the peptide text is derived from it. The star is where a group is joined. Boc = CC(C)(C)OC(=O)*; OBn = c1ccc(CO*)cc1
Experiments:
Assay in all cases: inhibition of tumour cell growth, NCI panel, 48 h
[1] = tested on: A498 renal
[2] = tested on: ACHN renal
[3] = tested on: M14 melanoma
[4] = tested on: MCF7 breast
[5] = tested on: SNB-19 CNS
[6] = tested on: SR leukemia
[7] = tested on: U251 CNS
[8] = tested on: HL-60(TB) leukemia
[9] = tested on: MALME-3M melanoma
[10] = tested on: BT-549 breast

Structure (SMILES): COc1ccc2c(c1)/c(=C/c1ccc(N(C)C)cc1)c1cc(-c3ccccc3)[n+](C)n12
- TGI [1]: 2.75 µM
- TGI [2]: 5.68 µM
- TGI [3]: 1.36 µM
- TGI [4]: 7.11 µM
- TGI [5]: 1.21 µM
- TGI [6]: 2.84 µM
- TGI [7]: 1.6 µM

Structure (SMILES): CN(Cc1cnc2nc(N)nc(N)c2n1)c1ccc(C(=O)NC(CCC(=O)NC(P(=O)(O)O)P(=O)(O)O)C(=O)O)cc1 (configuration not stated)
- TGI [2]: > 100 µM
- TGI [8]: > 100 µM
- TGI [3]: > 100 µM
- TGI [9]: > 100 µM
- TGI [4]: > 100 µM
- TGI [5]: 27.6 µM
- TGI [6]: > 100 µM
- TGI [7]: > 100 µM

Structure (SMILES): CC1(Cl)CC2C(CC1Sc1nnnn1-c1ccccc1)C2(C)C (configuration not stated)
- TGI [2]: > 100 µM
- TGI [8]: 49.4 µM
- TGI [3]: > 100 µM
- TGI [5]: > 100 µM
- TGI [6]: > 100 µM

Structure (SMILES): c1ccc2c(Cc3nnc4sc(SSc5nn6c(Cc7c[nH]c8ccccc78)nnc6s5)nn34)c[nH]c2c1
- TGI [1]: 44.2 µM
- TGI [2]: > 100 µM
- TGI [8]: 75.7 µM
- TGI [3]: 37.2 µM
- TGI [9]: 78.7 µM
- TGI [4]: 46.4 µM
- TGI [5]: > 100 µM
- TGI [6]: 41.7 µM
- TGI [7]: 58.6 µM

Structure (SMILES): CC(C)(C)OC(=O)NC(Cc1ccccc1)C(=O)NC(Cc1ccccc1)C(=O)NCC(=O)OCc1ccccc1 (stereo not drawn) (Boc-Phe-Phe-Gly-OBn; configuration not given here)
- TGI [1]: > 100 µM
- TGI [2]: > 100 µM
- TGI [8]: 57.6 µM
- TGI [3]: 62.7 µM
- TGI [9]: > 100 µM
- TGI [4]: > 100 µM
- TGI [5]: > 100 µM
- TGI [6]: 44.6 µM
- TGI [7]: 36.3 µM

Structure (SMILES): NCCCCNCCCNC(=O)c1nc(-c2csc(CCN)n2)sc1Cl
- TGI [1]: > 100 µM
- TGI [2]: > 100 µM
- TGI [8]: > 100 µM
- TGI [3]: > 100 µM
- TGI [9]: > 100 µM
- TGI [5]: > 100 µM
- TGI [6]: > 100 µM
- TGI [7]: > 100 µM

Structure (SMILES): C[n+]1c2ccccc2c(C(=O)Nc2ccc(S(=O)(=O)N=C(N)N)cc2)c2ccccc21
- TGI [1]: > 100 µM
- TGI [2]: > 100 µM
- TGI [3]: > 100 µM
- TGI [9]: > 100 µM
- TGI [4]: > 100 µM
- TGI [5]: > 100 µM
- TGI [7]: > 100 µM

Structure (SMILES): COc1ccc(OC)c2c1C1CCC(=O)N1CN2C(C)=O (configuration not stated)
- TGI [1]: > 100 µM
- TGI [2]: > 100 µM
- TGI [8]: > 100 µM
- TGI [3]: > 100 µM
- TGI [9]: > 100 µM
- TGI [4]: > 100 µM
- TGI [5]: > 100 µM
- TGI [7]: > 100 µM

Structure (SMILES): C/C(O)=C/c1nc2ccc([N+](=O)[O-])cc2nc1/C=C(/C)O
- TGI [1]: 83.6 µM
- TGI [2]: > 100 µM
- TGI [10]: > 100 µM
- TGI [8]: > 100 µM
- TGI [3]: > 100 µM
- TGI [9]: 94.3 µM
- TGI [5]: > 100 µM
- TGI [6]: 47 µM
- TGI [7]: > 100 µM

Structure (SMILES): COC(=O)C1(Cc2ccccc2)Cc2ccccc2C1
- TGI [2]: > 100 µM
- TGI [8]: 45.8 µM
- TGI [3]: 34.8 µM
- TGI [9]: 35.4 µM
- TGI [4]: > 100 µM
- TGI [6]: > 100 µM
- TGI [7]: 73.5 µM

Structure (SMILES): CCc1ccc2c(c1)CC1(C2)Cc2cc3c(cc2C1)C(=O)CC3 (configuration not stated)
- TGI [1]: 46.4 µM
- TGI [2]: 63.9 µM
- TGI [8]: 15.6 µM
- TGI [3]: > 100 µM
- TGI [9]: 57.1 µM
- TGI [4]: > 100 µM
- TGI [7]: > 100 µM

Structure (SMILES): CCCCOCn1c(=O)[nH]c(=O)c2cc(Br)ccc21
- TGI [1]: > 100 µM
- TGI [2]: 42.1 µM
- TGI [8]: > 100 µM
- TGI [3]: > 100 µM
- TGI [4]: > 100 µM
- TGI [5]: > 100 µM
- TGI [6]: > 100 µM
- TGI [7]: > 100 µM

Structure (SMILES): CC(=O)Oc1ccc(C2COc3cc(OC(C)=O)c(OC(C)=O)cc3C2)cc1 (configuration not stated)
- TGI [1]: 13.8 µM
- TGI [8]: 20.3 µM
- TGI [9]: 31 µM
- TGI [4]: 35.2 µM
- TGI [5]: > 100 µM
- TGI [7]: 60.4 µM

Structure (SMILES): C#CCn1c(=O)c(C#N)c(O)c2cc3ccccc3nc21
- TGI [1]: > 100 µM
- TGI [8]: > 100 µM
- TGI [9]: > 100 µM
- TGI [4]: > 100 µM
- TGI [5]: > 100 µM
- TGI [7]: > 100 µM

Structure (SMILES): CCc1c(C)c(C#N)c(=S)n(C2OC(CO)C(O)C(O)C2O)c1C (configuration not stated)
- TGI [1]: > 100 µM
- TGI [2]: > 100 µM
- TGI [8]: > 100 µM
- TGI [3]: > 100 µM
- TGI [9]: > 100 µM
- TGI [4]: > 100 µM
- TGI [5]: > 100 µM
- TGI [6]: > 100 µM
- TGI [7]: > 100 µM

Structure (SMILES): CN(C)CCCOCCn1c2c(c3ccccc31)CCCC2
- TGI [2]: 29 µM
- TGI [8]: 20.7 µM
- TGI [3]: 32.1 µM
- TGI [9]: 32.5 µM
- TGI [4]: 31.5 µM
- TGI [6]: 41 µM
- TGI [7]: 41.8 µM

Structure (SMILES): CCOC(=O)C(/C=N\C(=S)Nc1ccc(OCC)cc1)=C(/O)c1ccccc1
- TGI [1]: 88.4 µM
- TGI [2]: > 100 µM
- TGI [8]: > 100 µM
- TGI [3]: > 100 µM
- TGI [9]: > 100 µM
- TGI [4]: > 100 µM
- TGI [5]: > 100 µM
- TGI [6]: > 100 µM
- TGI [7]: > 100 µM

Structure (SMILES): COc1cc2c(cc1OC)-c1c3c(cc4c1[C@@H](C2)N(C)CC4)OCO3
- TGI [1]: 16.9 µM
- TGI [8]: 29.9 µM
- TGI [9]: 20.1 µM
- TGI [4]: 27.3 µM
- TGI [5]: 59.9 µM
- TGI [7]: 48.8 µM

Structure (SMILES): NNC(=S)N1CCN(C(=S)NN)CC1
- TGI [1]: > 100 µM
- TGI [2]: > 100 µM
- TGI [10]: > 100 µM
- TGI [8]: > 100 µM
- TGI [3]: > 100 µM
- TGI [9]: > 100 µM
- TGI [5]: > 100 µM
- TGI [6]: > 100 µM
- TGI [7]: > 100 µM

Structure (SMILES): COc1cc(/C=C2\CCC(C)C3=C2NC(=S)NC3c2cc(OC)c(OC)c(OC)c2)cc(OC)c1OC (configuration not stated)
- TGI [1]: > 100 µM
- TGI [2]: > 100 µM
- TGI [8]: 39.7 µM
- TGI [3]: > 100 µM
- TGI [4]: > 100 µM
- TGI [5]: > 100 µM
- TGI [6]: > 100 µM
- TGI [7]: > 100 µM
